Data published in US10183943B2, “Heterocyclic compounds and their use in preventing or treating bacterial infections” (MUTABILIS, priority 2015, dated 2019).
Where a name gives a salt, the structure may show the parent alone.

Assays:
[1] = target: T1, TEM-1 (Escherichia coli, UniProt P62593); assay: β-lactamase inhibitory activity, determination of IC50 (nitrocefin hydrolysis); format: biochemical
T1 construct: made in house; host or cells: E. coli

[2] = target: T2, SHV-1 (Klebsiella pneumoniae, UniProt P0AD64); assay: as above; format: biochemical
T2 construct: made in house; host or cells: E. coli

[3] = target: T3, CTX-M-15 (Escherichia coli, UniProt Q9EXV5); assay: as above; format: biochemical; conditions: class (A); nitrocefin 200 μM, 30 min pre-incubation; read-out: IC50 β-lactamase CTX-M-15
T3 construct: made in house; host or cells: E. coli

[4] = target: T4, KPC-2 (Klebsiella pneumoniae, UniProt Q9F663); assay: as above; format: biochemical; conditions: class (A); nitrocefin 200 μM, 30 min pre-incubation; read-out: IC50 β-lactamase KPC-2
T4 construct: made in house; host or cells: E. coli

[5] = target: T5, OXA-1 (Escherichia coli, UniProt P13661); assay: as above; format: biochemical; conditions: class (D); nitrocefin 200 μM, 30 min pre-incubation; read-out: IC50 β-lactamase OXA-1
T5 construct: made in house; host or cells: E. coli

[6] = target: T6, OXA-11 (Pseudomonas aeruginosa, UniProt Q06778); assay: as above; format: biochemical
T6 construct: made in house; host or cells: E. coli

[7] = target: T7, OXA-15 (Pseudomonas aeruginosa, UniProt Q51574); assay: biochemical
T7 construct: made in house; host or cells: E. coli

[8] = target: T8, OXA-48 (Klebsiella pneumoniae, UniProt Q6XEC0); assay: β-lactamase inhibitory activity, determination of IC50 (nitrocefin hydrolysis); format: biochemical; conditions: class (D); nitrocefin 200 μM, 30 min pre-incubation; read-out: IC50 β-lactamase OXA-48
T8 construct: made in house; host or cells: E. coli

[9] = test system: E. cloacae P99 (AmpC); assay: MIC of compounds alone, broth microdilution; format: cell-based; conditions: Enterobacter cloacae; strain P99 (E. cloacae); read-out: MIC compounds of the invention alone
Procedure: (§1) Method 2: MIC of Compounds and Synergy with Ceftazidime Against Bacterial Isolates (Table 2 and 3)
(§2) Compounds of the present invention were assessed against genotyped bacterial strains alone or in combination with the β-lactam ceftazidime (CAZ). In the assays, MICs of said compounds, or of ceftazidime at fixed concentrations of said compounds were determined by the broth microdilution method according to the Clinical Laboratory Standards Institute (CLSI-M7-A7). Briefly, compounds alone according to the invention were prepared in DMSO and spotted (2 μL each) on sterile polystyrene plates (Corning, 3788). Compounds and ceftazidime dilutions were prepared in DMSO and spotted (1 μL each) on sterile polystyrene plates (Corning, 3788). Log phase bacterial suspensions were adjusted to a final density of 5×10^5 cfu/mL in cation-adjusted Mueller-Hinton broth (Becton-Dickinson) and added to each well (98 μL). Microplates were incubated for 16-20 h at 35° C. in ambient air. The MIC of the compounds was defined as the lowest concentration of said compounds that prevented bacterial growth as read by visual inspection. The MIC of ceftazidime at each compound concentration was defined as the lowest concentration of ceftazidime that prevented bacterial growth as read by visual inspection.

[10] = test system: E. coli 190317 (TEM-1, SHV-12, CTX-M-15, OXA-1); assay: MIC of compounds alone, broth microdilution; format: cell-based; conditions: Escherichia coli, read-out: MIC compounds of the invention alone
Procedure: as §1, §2

[11] = test system: K. pneumoniae 6299 (TEM-1, SHV-11, OXA-163); assay: MIC of compounds alone, broth microdilution; format: cell-based; conditions: Klebsiella pneumoniae; strain 6299 (K. pneumoniae); read-out: MIC compounds of the invention alone
Procedure: as §1, §2

[12] = test system: K. pneumoniae BAA-1898 (TEM-1, SHV-11, SHV-12, KPC-2); assay: MIC of compounds alone, broth microdilution; format: cell-based; conditions: Klebsiella pneumoniae, BAA1898; strain BAA-1898 (K. pneumoniae); read-out: MIC compounds of the invention alone
Procedure: as §1, §2

[13] = test system: K. pneumoniae UFR39 (CTX-M-15, NDM-1); assay: MIC of compounds alone, broth microdilution; format: cell-based; conditions: Klebsiella pneumoniae; strain UFR39 (K. pneumoniae); read-out: MIC compounds of the invention alone
Procedure: as §1, §2

[14] = test system: P. aeruginosa CIP107051 (TEM-24); assay: MIC of compounds alone, broth microdilution; format: cell-based; conditions: Pseudomonas aeruginosa; strain CIP107051 (P. aeruginosa); read-out: MIC compounds of the invention alone
Procedure: as §1, §2

[15] = target: AmpC (P99) (Enterobacter cloacae, UniProt P05364); assay: β-lactamase inhibitory activity, determination of IC50 (nitrocefin hydrolysis)
[16] = target: AmpC P. aeruginosa (Pseudomonas aeruginosa, UniProt P24735); assay: as above
[17] = test system: E. coli 131119 (TEM-1, OXA-48); assay: MIC of compounds alone, broth microdilution; format: cell-based; conditions: Escherichia coli; strain 131119 (E. coli); read-out: MIC compounds of the invention alone
Procedure: as §1, §2

[18] = test system: E. coli RGN238 (OXA-1); assay: MIC of compounds alone, broth microdilution; format: cell-based; conditions: Escherichia coli; strain RGN238 (E. coli); read-out: MIC compounds of the invention alone
Procedure: as §1, §2

T5 sequence (P13661 26-276): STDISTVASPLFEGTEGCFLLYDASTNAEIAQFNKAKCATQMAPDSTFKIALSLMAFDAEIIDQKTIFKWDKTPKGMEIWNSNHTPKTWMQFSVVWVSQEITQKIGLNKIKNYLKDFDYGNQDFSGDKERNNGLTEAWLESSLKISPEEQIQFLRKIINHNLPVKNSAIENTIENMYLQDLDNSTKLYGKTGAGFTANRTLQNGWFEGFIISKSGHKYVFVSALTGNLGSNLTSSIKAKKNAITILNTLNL
T8 sequence (Q6XEC0 23-265 limits assumed): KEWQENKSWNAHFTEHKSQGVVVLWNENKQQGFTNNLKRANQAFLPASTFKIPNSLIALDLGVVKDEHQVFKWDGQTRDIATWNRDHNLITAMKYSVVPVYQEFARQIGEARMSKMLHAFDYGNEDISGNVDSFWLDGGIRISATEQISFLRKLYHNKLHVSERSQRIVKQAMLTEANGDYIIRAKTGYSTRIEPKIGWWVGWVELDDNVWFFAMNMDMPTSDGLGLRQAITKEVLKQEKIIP
T7 sequence (Q51574 22-275): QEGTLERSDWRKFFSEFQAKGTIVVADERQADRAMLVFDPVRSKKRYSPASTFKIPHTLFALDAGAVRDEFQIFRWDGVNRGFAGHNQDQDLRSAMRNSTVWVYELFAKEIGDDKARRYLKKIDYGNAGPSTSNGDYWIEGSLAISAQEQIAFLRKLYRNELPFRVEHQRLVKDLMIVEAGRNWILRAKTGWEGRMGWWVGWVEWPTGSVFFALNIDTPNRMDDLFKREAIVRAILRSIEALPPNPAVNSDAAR
T2 sequence (P0AD64 22-286): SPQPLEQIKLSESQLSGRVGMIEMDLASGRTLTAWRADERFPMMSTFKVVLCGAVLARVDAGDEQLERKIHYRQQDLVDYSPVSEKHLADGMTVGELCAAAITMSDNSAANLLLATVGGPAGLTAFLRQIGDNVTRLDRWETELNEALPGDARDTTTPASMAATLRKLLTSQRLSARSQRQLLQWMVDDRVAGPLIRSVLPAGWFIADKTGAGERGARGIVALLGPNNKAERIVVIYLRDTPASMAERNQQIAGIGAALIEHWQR
T4 sequence (Q9F663 25-293 limits assumed): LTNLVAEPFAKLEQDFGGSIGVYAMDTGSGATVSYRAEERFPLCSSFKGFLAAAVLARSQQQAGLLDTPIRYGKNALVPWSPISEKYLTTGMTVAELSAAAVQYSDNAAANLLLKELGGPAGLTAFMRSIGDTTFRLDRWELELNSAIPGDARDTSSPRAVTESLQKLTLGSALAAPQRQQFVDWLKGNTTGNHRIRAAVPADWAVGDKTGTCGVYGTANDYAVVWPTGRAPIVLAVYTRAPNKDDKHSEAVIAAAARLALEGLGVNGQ
T3 sequence (Q9EXV5 entry or part of it): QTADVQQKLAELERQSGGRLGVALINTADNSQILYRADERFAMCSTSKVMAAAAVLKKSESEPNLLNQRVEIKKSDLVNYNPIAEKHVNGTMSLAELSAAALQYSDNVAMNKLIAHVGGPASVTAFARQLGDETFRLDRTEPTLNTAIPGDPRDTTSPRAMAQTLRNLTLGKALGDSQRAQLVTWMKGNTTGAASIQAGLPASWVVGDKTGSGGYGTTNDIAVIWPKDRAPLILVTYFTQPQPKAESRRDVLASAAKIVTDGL
T1 sequence (P62593 24-286 limits assumed): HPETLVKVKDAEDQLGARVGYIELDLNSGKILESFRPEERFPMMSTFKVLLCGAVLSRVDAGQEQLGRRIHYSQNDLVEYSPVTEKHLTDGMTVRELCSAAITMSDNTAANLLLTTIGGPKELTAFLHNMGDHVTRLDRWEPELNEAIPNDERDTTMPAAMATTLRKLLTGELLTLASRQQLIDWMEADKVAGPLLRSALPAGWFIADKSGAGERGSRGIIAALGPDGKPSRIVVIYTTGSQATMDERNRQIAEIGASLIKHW
T6 sequence (Q06778 21-266): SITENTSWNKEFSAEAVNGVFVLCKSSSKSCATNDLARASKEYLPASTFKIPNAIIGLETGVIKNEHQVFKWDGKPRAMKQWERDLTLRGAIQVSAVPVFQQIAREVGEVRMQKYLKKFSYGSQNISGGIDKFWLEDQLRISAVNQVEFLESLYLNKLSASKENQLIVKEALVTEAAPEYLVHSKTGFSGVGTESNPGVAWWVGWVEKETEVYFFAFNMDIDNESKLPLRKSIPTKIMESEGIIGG
Sequence of AmpC (P99) (P05364 21-381): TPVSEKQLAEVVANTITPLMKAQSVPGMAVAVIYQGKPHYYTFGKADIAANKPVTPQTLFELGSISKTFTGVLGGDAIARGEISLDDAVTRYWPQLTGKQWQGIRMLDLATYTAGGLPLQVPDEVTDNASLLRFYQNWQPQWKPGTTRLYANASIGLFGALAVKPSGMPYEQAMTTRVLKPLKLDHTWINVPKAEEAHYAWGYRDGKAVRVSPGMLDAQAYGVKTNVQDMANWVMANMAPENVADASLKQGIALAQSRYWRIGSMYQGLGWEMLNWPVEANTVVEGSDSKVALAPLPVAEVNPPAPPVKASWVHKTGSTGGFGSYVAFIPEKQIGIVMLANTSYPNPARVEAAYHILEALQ
Sequence of AmpC P. aeruginosa (P24735 27-397): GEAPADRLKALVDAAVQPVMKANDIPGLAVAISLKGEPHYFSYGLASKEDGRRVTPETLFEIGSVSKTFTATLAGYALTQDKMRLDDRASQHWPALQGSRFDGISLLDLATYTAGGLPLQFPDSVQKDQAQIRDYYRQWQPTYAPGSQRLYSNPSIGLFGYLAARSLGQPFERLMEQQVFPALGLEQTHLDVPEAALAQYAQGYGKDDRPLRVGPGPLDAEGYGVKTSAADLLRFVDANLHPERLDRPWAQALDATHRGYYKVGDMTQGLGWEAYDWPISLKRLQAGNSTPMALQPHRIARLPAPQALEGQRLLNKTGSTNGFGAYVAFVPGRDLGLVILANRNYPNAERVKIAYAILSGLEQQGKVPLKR

Structure (SMILES) | IC50 [1] | IC50 [2] | IC50 [3] | IC50 [4] | IC50 [5] | IC50 [6] | IC50 [7] | IC50 [8] | MIC [9] | MIC [10] | MIC [11] | MIC [12] | MIC [13] | MIC [14] | IC50 [15] | IC50 [16] | MIC [17] | MIC [18]
O=C1N2CC(c3nc4cccnc4s3)=CC(C2)N1OS(=O)(=O)[O-].[Na+] (centres unmarked) [Example 40, Sodium (7-oxo-3-thiazolo[5,4-b]pyridin-2-yl-1,6-diazabicyclo[3.2.1]oct-3-en-6-yl) sulfate] | 0.35 nM | 1.1 nM | 1.2 nM | 2.2 nM | 120 nM | 61 nM | 77 nM | 2.7 nM | > 32 µg/mL | > 32 µg/mL | > 32 µg/mL | > 32 µg/mL | > 32 µg/mL | > 32 µg/mL | 10 nM | 230 nM |  | 
O=C1N2CC(c3cn[nH]c3)=CC(C2)N1OS(=O)(=O)[O-].[Na+] (centres unmarked) [Example 43, Sodium [7-oxo-3-(1H-pyrazol-4-yl)-1,6-diazabicyclo[3.2.1]oct-3-en-6-yl] sulfate] | 0.77 nM | 1.7 nM | 2.9 nM | 30 nM | 1200 nM | 370 nM | 540 nM | 9.4 nM | > 32 µg/mL | > 32 µg/mL | > 32 µg/mL | > 32 µg/mL | > 32 µg/mL | > 32 µg/mL | 180 nM | 440 nM |  | 
O=C1N2CC(c3ccccn3)=CC(C2)N1OS(=O)(=O)[O-].[Na+] (centres unmarked) [Example 42, Sodium [7-oxo-3-(2-pyridyl)-1,6-diazabicyclo[3.2.1]oct-3-en-6-yl]sulfate] | 2.4 nM | 2.9 nM | 0.89 nM | 8 nM | 640 nM | 120 nM | 370 nM | 31 nM | > 32 µg/mL | 16 µg/mL | > 32 µg/mL | 32 µg/mL | 32 µg/mL | > 32 µg/mL | 25 nM | 75 nM |  | 
O=C1N2CC=C(c3cnccn3)C(C2)N1OS(=O)(=O)[O-].[Na+] (centres unmarked) [Example 12, Sodium [4-(pyrazin-2-yl)-7-oxo-1,6-diazabicyclo[3.2.1]oct-3-en-6-yl]sulfate] | 3.1 nM | 6.9 nM | 5.7 nM | 310 nM | 350 nM | 1200 nM | 66 nM | 3.2 nM | > 32 µg/mL | > 32 µg/mL | > 32 µg/mL | > 32 µg/mL |  | > 32 µg/mL | 1400 nM | 1600 nM | 16 µg/mL | > 32 µg/mL
Cn1cc(C2=CC3CN(C2)C(=O)N3OS(=O)(=O)[O-])ccc1=O.[Na+] (centres unmarked) [Example 28, Sodium [3-(1-methyl-6-oxo-3-pyridyl)-7-oxo-1,6-diazabicyclo[3.2.1]oct-3-en-6-yl] sulfate] | 1.6 nM | 3.8 nM | 4.4 nM | 6.5 nM | 1000 nM | 430 nM | 18 nM | 54 nM | > 32 µg/mL | > 32 µg/mL | > 32 µg/mL | > 32 µg/mL |  | > 32 µg/mL | 77 nM | 520 nM | > 32 µg/mL | > 32 µg/mL
Cn1c(C2=CCN3CC2N(OS(=O)(=O)[O-])C3=O)cccc1=O.[Na+] (centres unmarked) [Example 18, Sodium [4-(N-methyl-6-oxo-2-pyridyl)-7-oxo-1,6-diazabicyclo[3.2.1]oct-3-en-6-yl] sulfate] | 2.7 nM | 11 nM | 17 nM | 1800 nM | 35 nM | 540 nM | 14 nM | 20 nM | 16 µg/mL | > 32 µg/mL | > 32 µg/mL | > 32 µg/mL |  | > 32 µg/mL | 230 nM | 2700 nM | > 32 µg/mL | > 32 µg/mL
COc1ncc(C2=CC3CN(C2)C(=O)N3OS(=O)(=O)[O-])s1.[Na+] (centres unmarked) [Example 39, Sodium [3-(2-methoxythiazol-5-yl)-7-oxo-1,6-diazabicyclo[3.2.1]oct-3-en-6-yl] sulfate] | 1.4 nM | 3.2 nM | 0.62 nM | 11 nM | 220 nM | 140 nM | 79 nM | 0.99 nM | > 32 µg/mL | > 32 µg/mL | > 32 µg/mL | > 32 µg/mL | > 32 µg/mL | > 32 µg/mL | 46 nM | 240 nM |  | 
NCc1ncc(C2=CCN3CC2N(OS(=O)(=O)O)C3=O)s1 (centres unmarked) [Example 32, [4-[2-(aminomethyl)thiazol-5-yl]-7-oxo-1,6-diazabicyclo[3.2.1]oct-3-en-6-yl] hydrogen sulfate] | 7.5 nM | 33 nM | 14 nM | 300 nM | 670 nM | 3500 nM | 170 nM | 8.9 nM | 16 µg/mL | 8 µg/mL | > 32 µg/mL | > 32 µg/mL |  | > 32 µg/mL | 4400 nM | 3200 nM | > 32 µg/mL | > 32 µg/mL
O=C1N2CC=C(c3cn[nH]c3)C(C2)N1OS(=O)(=O)[O-].[Na+] (centres unmarked) [Example 1, Sodium (7-oxo-4-pyrazol-4-yl-1,6-diaza-bicyclo[3.2.1]oct-3-en-6-yl) sulfate] | 13 nM | 29 nM | 26 nM | 770 nM | 1400 nM | 2900 nM | 590 nM | 8.9 nM | > 32 µg/mL | 32 µg/mL | > 32 µg/mL | > 32 µg/mL |  | > 32 µg/mL | 6100 nM | 9300 nM | > 32 µg/mL | > 32 µg/mL
